Consider two molecules from ChEMBL document CHEMBL1137086, “Identification of compounds with nanomolar binding affinity for checkpoint kinase-1 using knowledge-based virtual screening” (J Med Chem, 2004).

This experiment deals with T1, Serine/threonine-protein kinase Chk1 (Homo sapiens, UniProt O14757).
T1 sequence (O14757 whole entry): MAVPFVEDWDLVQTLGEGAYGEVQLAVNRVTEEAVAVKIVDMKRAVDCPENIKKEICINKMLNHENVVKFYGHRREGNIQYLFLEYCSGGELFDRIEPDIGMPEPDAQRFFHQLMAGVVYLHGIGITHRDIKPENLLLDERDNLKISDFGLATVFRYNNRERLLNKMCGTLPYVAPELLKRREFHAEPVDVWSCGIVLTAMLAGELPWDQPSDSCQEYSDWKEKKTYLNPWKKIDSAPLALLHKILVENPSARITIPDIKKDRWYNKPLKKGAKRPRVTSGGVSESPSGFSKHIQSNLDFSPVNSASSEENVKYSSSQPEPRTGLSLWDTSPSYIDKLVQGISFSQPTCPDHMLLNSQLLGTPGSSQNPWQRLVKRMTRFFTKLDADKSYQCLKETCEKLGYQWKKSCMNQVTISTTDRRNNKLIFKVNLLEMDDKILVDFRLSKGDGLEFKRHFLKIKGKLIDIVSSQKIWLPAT
As to the kind of experiment: Inhibition of checkpoint kinase-1.

One may read the IC50 as the midpoint of a concentration-inhibition curve. High values mean a need for much substance, low ones inhibition by little substance. Turning to `COc1ccc(Nc2nc(Nc3ccc(C(=O)O)cc3)ncc2Br)cc1`, the IC50 worked out at 0.45 µM. Regarding `N#Cc1ccc2c(c1)NC(=O)C2c1ncnc2cc(OCCCN3CCOCC3)ccc12` (configuration not stated), the IC50 is 4 µM.
